For assay [1], the target named is T1, CRF2R (Homo sapiens, UniProt Q13324).
T1 sequence (Q13324 1-411): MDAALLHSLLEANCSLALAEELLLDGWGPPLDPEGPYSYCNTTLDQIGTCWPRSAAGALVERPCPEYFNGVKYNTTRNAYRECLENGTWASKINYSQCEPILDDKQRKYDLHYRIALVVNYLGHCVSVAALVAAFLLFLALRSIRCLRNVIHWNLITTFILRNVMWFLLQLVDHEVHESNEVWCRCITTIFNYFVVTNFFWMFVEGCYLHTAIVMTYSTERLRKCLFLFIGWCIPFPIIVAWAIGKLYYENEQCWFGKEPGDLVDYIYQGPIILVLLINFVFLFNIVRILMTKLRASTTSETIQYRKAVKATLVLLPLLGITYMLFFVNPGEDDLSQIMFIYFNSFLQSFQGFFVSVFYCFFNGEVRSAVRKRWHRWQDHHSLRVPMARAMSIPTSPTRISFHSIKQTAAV
Put plainly: CRF2R agonist activation (EC50 / Emax), called comparative CRF binding. The class given is cell-based. The settings on record: for Emax: read-out: CRF2R Emax. Summed up:
(§1)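 CRFR-expressing cells + peptide vs vehicle; read-out cAMP (lysate assay) or CRE-linked reporter expression (luciferase, CAT, fluorescent protein, alkaline phosphatase, etc.). Signal compared against vehicle-treated cells.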

Assay [2] addresses T2, CRF1R (Homo sapiens, UniProt P34998).
T2 sequence (P34998 24-415): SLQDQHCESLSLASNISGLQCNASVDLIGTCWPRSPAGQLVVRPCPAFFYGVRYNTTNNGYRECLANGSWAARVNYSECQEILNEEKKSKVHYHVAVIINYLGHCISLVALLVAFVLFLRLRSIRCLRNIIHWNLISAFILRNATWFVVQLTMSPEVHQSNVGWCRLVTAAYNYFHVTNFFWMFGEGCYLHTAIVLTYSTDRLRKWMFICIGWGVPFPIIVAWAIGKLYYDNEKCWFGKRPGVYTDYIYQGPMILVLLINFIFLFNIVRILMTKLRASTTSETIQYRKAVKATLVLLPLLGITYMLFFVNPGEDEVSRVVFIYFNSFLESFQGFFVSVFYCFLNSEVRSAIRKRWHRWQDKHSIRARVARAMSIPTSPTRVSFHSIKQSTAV
Put plainly: CRF1R agonist activation (EC50 / Emax), called comparative CRF binding. It is filed as cell-based. The settings on record: for Emax: read-out: CRF1R Emax. Summed up:
as §1

Like-named read-outs stand apart in the source and are kept apart here. Peptide text beside a SMILES is read from it.

What is called EC50 is the concentration needed to bring the measured effect to its halfway point. In general, Emax refers to the greatest response seen or fitted, relative to the assay's reference. Turning to `CC[C@H](C)[C@H](NC(=O)[C@H](C)NC(=O)[C@H](CC(N)=O)NC(=O)[C@H](CCC(N)=O)NC(=O)[C@H](CCC(=O)O)NC(=O)[C@H](C)NC(=O)[C@H](CCCNC(=N)N)NC(=O)[C@H](CCC(=O)O)NC(=O)[C@H](CCCNC(=N)N)NC(=O)[C@H](CCC(N)=O)NC(=O)[C@H](CO)NC(=O)[C@H](CCC(N)=O)NC(=O)[C@@H](NC(=O)[C@H](CCCNC(=N)N)NC(=O)[C@H](C)NC(=O)[C@H](CC(C)C)NC(=O)[C@H](CCC(=O)O)NC(=O)[C@H](CC(C)C)NC(=O)[C@H](CC(C)C)NC(=O)[C@@H](NC(=O)[C@H](CCCNC(=N)N)NC(=O)[C@H](CC(C)C)NC(=O)[C@H](CC(C)C)NC(=O)[C@H](Cc1c[nH]cn1)NC(=O)[C@H](Cc1ccccc1)NC(=O)[C@@H]1CCCN1C(=O)[C@H](CC(C)C)NC(=O)[C@H](CC(=O)O)NC(=O)[C@@H](NC(=O)[C@H](CO)NC(=O)[C@H](CC(C)C)NC(=O)[C@H](CO)NC(=O)[C@@H]1CCCN1C(=O)[C@H](CC(N)=O)NC(=O)[C@@H](N)CC(=O)O)[C@@H](C)CC)[C@@H](C)O)[C@@H](C)O)C(=O)N[C@H](C(=O)N[C@@H](Cc1ccccc1)C(=O)N[C@@H](C)C(=O)N[C@@H](CO)C(=O)N[C@H](C(N)=O)C(C)C)[C@@H](C)CC` [compound 185] (H-DNPSLSIDLPFHLLRTLLELARTQSQRERAEQNAIIFASV-NH2; N-terminus assumed), the EC50 stood at 8.98 nM in assay [1] (read-out: CRF2R EC50) and 358 nM in assay [2] (read-out: CRF1R EC50). The Emax in assay [1] turned out to be 100%; in assay [2], 95.8%.
As for `CC[C@H](C)[C@H](N)C(=O)N[C@H](C(=O)N[C@@H](CC(C)C)C(=O)N[C@@H](CO)C(=O)N[C@@H](CC(C)C)C(=O)N[C@@H](CC(=O)O)C(=O)N[C@H](C(=O)N[C@H](C(=O)N[C@H](C(=O)NCC(=O)N[C@@H](CC(C)C)C(=O)N[C@@H](CC(C)C)C(=O)N[C@@H](CCC(N)=O)C(=O)N[C@H](C(=O)N[C@@H](CC(C)C)C(=O)N[C@@H](CC(C)C)C(=O)N[C@@H](CCC(=O)O)C(=O)N[C@@H](CCC(N)=O)C(=O)N[C@@H](C)C(=O)N[C@@H](CCCNC(=N)N)C(=O)N[C@@H](C)C(=O)N[C@@H](CCCNC(=N)N)C(=O)N[C@@H](C)C(=O)N[C@@H](C)C(=O)N[C@@H](CCCNC(=N)N)C(=O)N[C@@H](CCC(=O)O)C(=O)N[C@@H](CCC(N)=O)C(=O)N[C@@H](C)C(=O)N[C@H](C(=O)N[C@H](C(=O)N[C@@H](CC(N)=O)C(=O)N[C@@H](C)C(=O)N[C@@H](CCCNC(=N)N)C(=O)N[C@H](C(=O)N[C@@H](CC(C)C)C(=O)N[C@@H](C)C(=O)N[C@@H](CCCNC(=N)N)C(=O)N[C@H](C(N)=O)C(C)C)[C@@H](C)CC)[C@@H](C)O)[C@@H](C)O)[C@@H](C)CC)[C@@H](C)CC)C(C)C)C(C)C)C(C)C` [compound 214] (H-IVLSLDVVIGLLQILLEQARARAAREQATTNARILARV-NH2; N-terminus assumed), the results for the Emax in assay [1] and in assay [2] were 60% and 4%, respectively.
On to `CC[C@H](C)[C@H](NC(=O)[C@H](C)NC(=O)[C@H](CC(N)=O)NC(=O)[C@H](CCC(N)=O)NC(=O)[C@H](CCC(=O)O)NC(=O)[C@H](C)NC(=O)[C@H](CCCNC(=N)N)NC(=O)[C@H](CCC(=O)O)NC(=O)[C@H](CCCNC(=N)N)NC(=O)[C@H](CCC(N)=O)NC(=O)[C@H](CO)NC(=O)[C@H](CCC(N)=O)NC(=O)[C@@H](NC(=O)[C@H](CCCNC(=N)N)NC(=O)[C@H](C)NC(=O)[C@H](CC(C)C)NC(=O)[C@H](CCC(=O)O)NC(=O)[C@H](CC(C)C)NC(=O)[C@H](CC(C)C)NC(=O)[C@@H](NC(=O)[C@H](CCCNC(=N)N)NC(=O)[C@H](CC(C)C)NC(=O)[C@H](CC(C)C)NC(=O)[C@H](Cc1ccc(O)cc1)NC(=O)[C@H](Cc1ccc(O)cc1)NC(=O)[C@@H]1CCCN1C(=O)[C@H](CC(C)C)NC(=O)[C@H](CC(=O)O)NC(=O)[C@@H](NC(=O)[C@H](CO)NC(=O)[C@H](CC(C)C)NC(=O)[C@H](CO)NC(=O)[C@@H]1CCCN1C(=O)[C@H](CC(N)=O)NC(=O)[C@@H](N)CC(=O)O)[C@@H](C)CC)[C@@H](C)O)[C@@H](C)O)C(=O)N[C@H](C(=O)N[C@@H](Cc1ccccc1)C(=O)N[C@@H](C)C(=O)N[C@@H](CO)C(=O)N[C@H](C(N)=O)C(C)C)[C@@H](C)CC` [compound 263] (H-DNPSLSIDLPYYLLRTLLELARTQSQRERAEQNAIIFASV-NH2; N-terminus assumed), for which the Emax in assay [1] amounted to 93%; in assay [2], 72%.
For the compound `CC[C@H](C)[C@H](N)C(=O)N[C@H](C(=O)N[C@@H](CC(C)C)C(=O)N[C@@H](CO)C(=O)N[C@@H](CC(C)C)C(=O)N[C@@H](CC(=O)O)C(=O)N[C@H](C(=O)N1CCC[C@H]1C(=O)N[C@H](C(=O)NCC(=O)N[C@@H](CC(C)C)C(=O)N[C@@H](CC(C)C)C(=O)N[C@@H](CCC(N)=O)C(=O)N[C@@H](CCCCN)C(=O)N[C@H](C(=O)N[C@H](C(=O)N[C@@H](CCC(=O)O)C(=O)N[C@H](C(=O)N[C@@H](CCC(=O)O)C(=O)N[C@@H](CCCCN)C(=O)N[C@@H](CCC(N)=O)C(=O)N[C@@H](CCC(=O)O)C(=O)N[C@@H](CCCCN)C(=O)N[C@@H](CCC(=O)O)C(=O)N[C@@H](CCCCN)C(=O)N[C@@H](CCC(N)=O)C(=O)N[C@@H](CCC(N)=O)C(=O)N[C@@H](C)C(=O)N[C@H](C(=O)N[C@H](C(=O)N[C@@H](CC(N)=O)C(=O)N[C@@H](C)C(=O)N[C@@H](CCCNC(=N)N)C(=O)N[C@H](C(=O)N[C@@H](CC(C)C)C(=O)N[C@@H](C)C(=O)N[C@@H](CCCNC(=N)N)C(=O)N[C@H](C(N)=O)C(C)C)[C@@H](C)CC)[C@@H](C)O)[C@@H](C)O)[C@@H](C)CC)[C@@H](C)CC)C(C)C)[C@@H](C)CC)C(C)C)C(C)C` [compound 300] (H-IVLSLDVPIGLLQKVIEIEKQEKEKQQATTNARILARV-NH2; N-terminus assumed), the Emax in assay [1] is 100%; in assay [2], 7.95%.
`CC[C@H](C)[C@H](N)C(=O)N[C@H](C(=O)N[C@@H](CC(C)C)C(=O)N[C@@H](CO)C(=O)N[C@@H](CC(C)C)C(=O)N[C@@H](CC(=O)O)C(=O)N[C@H](C(=O)N1CCC[C@H]1C(=O)N[C@H](C(=O)NCC(=O)N[C@@H](CC(C)C)C(=O)N[C@@H](CC(C)C)C(=O)N[C@@H](CCC(N)=O)C(=O)N[C@@H](CCCCN)C(=O)N[C@@H](CCSC)C(=O)N[C@H](C(=O)N[C@@H](CCC(=O)O)C(=O)N[C@H](C(=O)N[C@@H](CCC(=O)O)C(=O)N[C@@H](CCCCN)C(=O)N[C@@H](CCC(N)=O)C(=O)N[C@@H](CCC(=O)O)C(=O)N[C@@H](CCCCN)C(=O)N[C@@H](CCC(=O)O)C(=O)N[C@@H](CCCCN)C(=O)N[C@@H](CCC(N)=O)C(=O)N[C@@H](CCC(N)=O)C(=O)N[C@@H](C)C(=O)N[C@H](C(=O)N[C@H](C(=O)N[C@@H](CC(N)=O)C(=O)N[C@@H](C)C(=O)N[C@@H](CCCNC(=N)N)C(=O)N[C@H](C(=O)N[C@@H](CC(C)C)C(=O)N[C@@H](C)C(=O)N[C@@H](CCCNC(=N)N)C(=O)N[C@H](C(N)=O)C(C)C)[C@@H](C)CC)[C@@H](C)O)[C@@H](C)O)[C@@H](C)CC)[C@@H](C)CC)[C@@H](C)CC)C(C)C)C(C)C` [compound 322] (H-IVLSLDVPIGLLQKMIEIEKQEKEKQQATTNARILARV-NH2; N-terminus assumed): the values for the EC50 in assay [1] and in assay [2] (CRF1R EC50) were 23.1 nM and at least 1000 nM, respectively. Besides, the Emax is 96.5% in assay [1] and 10.7% in assay [2].

For the origin of these results see patent publication US6936585B2, “Corticotropin releasing factor 2 receptor agonists” (priority 2002, dated 2005).
